The assay addresses Envelope glycoprotein gp160 (Human immunodeficiency virus 1, UniProt Q6QLK5). Description: cell-free HIV fusion peptide-binding blockers – biochemical, uHTS, fluorescence dequenching, […] (AID 1986).

We go through 1 compound from ChEMBL document CHEMBL1201862, “PubChem BioAssay data set” (2004).

Calls of active or inactive are those of the source. Rule as the data show it: actives have a measured IC50 and inactives only a lower limit.

Envelope glycoprotein gp160, sequence (Q6QLK5 whole entry, the tested form may be a part): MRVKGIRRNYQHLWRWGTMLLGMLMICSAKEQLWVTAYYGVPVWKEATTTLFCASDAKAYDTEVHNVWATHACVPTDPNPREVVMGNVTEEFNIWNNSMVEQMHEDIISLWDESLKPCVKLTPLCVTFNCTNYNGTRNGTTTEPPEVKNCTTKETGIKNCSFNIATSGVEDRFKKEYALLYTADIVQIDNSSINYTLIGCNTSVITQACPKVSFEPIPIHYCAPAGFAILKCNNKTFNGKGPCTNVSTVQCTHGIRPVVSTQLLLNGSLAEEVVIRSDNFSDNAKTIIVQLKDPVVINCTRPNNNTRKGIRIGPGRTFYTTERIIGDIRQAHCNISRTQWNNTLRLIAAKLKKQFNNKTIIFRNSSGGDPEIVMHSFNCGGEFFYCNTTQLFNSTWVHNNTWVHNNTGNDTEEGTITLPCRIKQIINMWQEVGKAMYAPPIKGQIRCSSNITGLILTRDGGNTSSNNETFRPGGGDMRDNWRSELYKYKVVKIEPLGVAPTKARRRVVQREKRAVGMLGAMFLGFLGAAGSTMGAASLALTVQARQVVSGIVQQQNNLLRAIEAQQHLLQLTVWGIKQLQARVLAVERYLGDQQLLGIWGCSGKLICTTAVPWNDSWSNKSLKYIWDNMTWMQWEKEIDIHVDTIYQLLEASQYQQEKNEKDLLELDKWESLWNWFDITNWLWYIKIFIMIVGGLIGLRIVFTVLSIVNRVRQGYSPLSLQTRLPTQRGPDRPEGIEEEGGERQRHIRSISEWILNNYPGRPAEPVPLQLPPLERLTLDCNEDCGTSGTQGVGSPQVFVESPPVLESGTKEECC

In general, IC50 refers to the concentration needed to halve the response being measured. As for `COc1ccc(C(=O)/C=C/c2cccc(OCc3ccccc3)c2)cc1CSCC(=O)O`, the IC50 is 29.2 µM (active).
